Source: the NIST ThermoML archive (doi:10.1016/j.jct.2017.08.035)

Assay: wn = mass fraction of the nth substance listed
Details: for surface tension liquid-gas: Maximal bubble pressure; for mass density: 100 kPa, Liquid, Vibrating tube method

CCn1cc[n+](CCOC)c1.O=S(=O)([O-])C(F)(F)F + O
Details	mass density, w2 = 0.00185 [kg/m3]	mass density, w2 = 0.0038 [kg/m3]	mass density, w2 = 0.00537 [kg/m3]	mass density, w2 = 0.00665 [kg/m3]	mass density, w2 = 0.00891 [kg/m3]	surface tension liquid-gas, w2 = 0.0016 [mN/m]	surface tension liquid-gas, w2 = 0.00284 [mN/m]	surface tension liquid-gas, w2 = 0.00419 [mN/m]	surface tension liquid-gas, w2 = 0.0056 [mN/m]	surface tension liquid-gas, w2 = 0.007 [mN/m]
298.15 K	1355.32	1354.72	1354.29	1353.79	1353.19	38.2	38.4	38.6	38.8	39
303.15 K	1351.04	1350.44	1350	1349.52	1348.89	37.9	38.1	38.3	38.4	38.6
308.15 K	1346.78	1346.18	1345.72	1345.26	1344.62	37.6	37.8	37.9	38.1	38.3
313.15 K	1342.54	1341.93	1341.46	1341.03	1340.36	37.3	37.5	37.7	37.9	38.1
318.15 K	1338.31	1337.7	1337.22	1336.82	1336.12	37.1	37.3	37.5	37.7	37.9
323.15 K	1334.1	1333.49	1333	1332.62	1331.9	36.8	37	37.2	37.5	37.7
328.15 K	1329.9	1329.3	1328.79	1328.44	1327.7	36.5	36.7	36.9	37.1	37.3
333.15 K	1325.72	1325.11	1324.6	1324.26	1323.51	36.3	36.5	36.7	36.9	37.1
338.15 K	1321.54	1320.94	1320.43	1320.1	1319.34	36	36.2	36.3	36.5	36.7

CC(=O)[O-].CCn1cc[n+](CCOC)c1 [1-ethyl-3-(2-methoxyethyl)imidazolium acetate] + O
Details	mass density, w2 = 0.00822 [kg/m3]	mass density, w2 = 0.00966 [kg/m3]	mass density, w2 = 0.01112 [kg/m3]	mass density, w2 = 0.01254 [kg/m3]	mass density, w2 = 0.01399 [kg/m3]	surface tension liquid-gas, w2 = 0.00188 [mN/m]	surface tension liquid-gas, w2 = 0.0034 [mN/m]	surface tension liquid-gas, w2 = 0.00488 [mN/m]	surface tension liquid-gas, w2 = 0.00638 [mN/m]	surface tension liquid-gas, w2 = 0.00792 [mN/m]
298.15 K	1193.01	1193.1	1193.21	1193.32	1193.44	46.3	46.5	46.7	47	47.3
303.15 K	1189.68	1189.78	1189.89	1189.98	1190.11	46	46.2	46.4	46.7	47
308.15 K	1186.36	1186.45	1186.56	1186.66	1186.79	45.7	45.9	46.2	46.4	46.7
313.15 K	1183.05	1183.14	1183.25	1183.35	1183.48	45.4	45.7	45.9	46.1	46.4
318.15 K	1179.76	1179.85	1179.96	1180.06	1180.19	45.1	45.3	45.6	45.8	46.1
323.15 K	1176.48	1176.57	1176.68	1176.78	1176.91	44.8	45.1	45.3	45.5	45.8
328.15 K	1173.21	1173.31	1173.42	1173.52	1173.65	44.6	44.9	45.1	45.3	45.6
333.15 K	1169.97	1170.06	1170.17	1170.27	1170.4	44.4	44.7	44.8	45.1	45.3
338.15 K	1166.74	1166.82	1166.93	1167.03	1167.16	44.2	44.5	44.6	44.9	45.1

CCn1cc[n+](CCOC)c1.N#C[N-]C#N [1-ethyl-3-(2-methoxyethyl)imidazolium dicyanamide] + O
Details	mass density, w2 = 0.00148 [kg/m3]	mass density, w2 = 0.00277 [kg/m3]	mass density, w2 = 0.00434 [kg/m3]	mass density, w2 = 0.0055 [kg/m3]	mass density, w2 = 0.00719 [kg/m3]	surface tension liquid-gas, w2 = 0.00031 [mN/m]	surface tension liquid-gas, w2 = 0.00175 [mN/m]	surface tension liquid-gas, w2 = 0.00317 [mN/m]	surface tension liquid-gas, w2 = 0.00461 [mN/m]	surface tension liquid-gas, w2 = 0.00609 [mN/m]
298.15 K	1113.35	1113.18	1112.96	1112.77	1112.46	44.7	44.9	45.3	45.6	45.9
303.15 K	1109.96	1109.78	1109.57	1109.37	1109.06	44.4	44.7	45	45.3	45.6
308.15 K	1106.58	1106.41	1106.19	1106	1105.69	44.1	44.4	44.7	45	45.3
313.15 K	1103.23	1103.05	1102.83	1102.64	1102.33	43.8	44.1	44.4	44.7	45
318.15 K	1099.89	1099.72	1099.5	1099.3	1098.99	43.5	43.8	44.1	44.4	44.7
323.15 K	1096.58	1096.4	1096.18	1095.98	1095.66	43.2	43.5	43.8	44.2	44.4
328.15 K	1093.27	1093.1	1092.88	1092.68	1092.36	43	43.3	43.6	44	44.2
333.15 K	1090	1089.82	1089.59	1089.4	1089.08	42.7	43.1	43.4	43.7	44
338.15 K	1086.74	1086.56	1086.33	1086.13	1085.81	42.4	42.8	43.1	43.4	43.7

CCn1cc[n+](CCOC)c1.N#C[S-] [1-ethyl-3-(2-methoxyethyl)imidazolium thiocyanate] + O
Details	mass density, w2 = 0.00246 [kg/m3]	mass density, w2 = 0.00426 [kg/m3]	mass density, w2 = 0.00608 [kg/m3]	mass density, w2 = 0.00832 [kg/m3]	mass density, w2 = 0.00975 [kg/m3]	surface tension liquid-gas, w2 = 0.00382 [mN/m]	surface tension liquid-gas, w2 = 0.00528 [mN/m]	surface tension liquid-gas, w2 = 0.00668 [mN/m]	surface tension liquid-gas, w2 = 0.00811 [mN/m]	surface tension liquid-gas, w2 = 0.00956 [mN/m]
298.15 K	1121.78	1121.54	1121.29	1120.96	1120.82	49.3	49.4	49.5	49.6	49.7
303.15 K	1118.56	1118.32	1118.08	1117.75	1117.6	49	49.1	49.2	49.3	49.4
308.15 K	1115.36	1115.12	1114.88	1114.54	1114.4	48.7	48.8	48.9	49	49.1
313.15 K	1112.18	1111.94	1111.7	1111.35	1111.21	48.4	48.5	48.6	48.8	48.9
318.15 K	1109.03	1108.77	1108.54	1108.18	1108.03	48.1	48.2	48.3	48.5	48.6
323.15 K	1105.88	1105.63	1105.39	1105.02	1104.87	47.8	47.9	48	48.1	48.2
328.15 K	1102.76	1102.5	1102.25	1101.87	1101.72	47.6	47.7	47.8	47.9	48
333.15 K	1099.65	1099.38	1099.13	1098.74	1098.59	47.4	47.5	47.6	47.7	47.8
338.15 K	1096.55	1096.28	1096.02	1095.62	1095.47	47.1	47.2	47.3	47.5	47.6
